# According to patent US20240124528A1, “ANTAGONIST OF INTERLEUKIN-17B RECEPTOR (IL-17RB) AND USE THEREOF” (Academia Sinica, priority 2020, published 2024):
# Tests used:
# Format in all cases: cell-based, human
# [1] = test system: pancreatic cancer cells expressing IL-17RB; assay: Invasion assay after peptide treatment; conditions: CFPAC1 and PDX-derived cells treated with peptide
# Source text: (§1) FIGS. 7A to 7J include charts showing that disruption of the interaction between IL-17RB and MLK4 by the loop peptide blocks oncogenic progression. (FIG. 7A) Peptides TAT48-57 (Control) (SEQ ID NO: 21) and TAT-IL-17RB403-416 (Loop) (SEQ ID NO: 30) used for the following experiments. (FIG. 7B) Immunoblotting analysis of IL-17RB binding to MLK4 with Loop peptide treatment. 293T cells expressing Flag-MLK4 and HA-IL-17RB were pretreated with the control and loop peptides with different dose (0, 0.1, 1, 10, 50, 100 ng/ml) for 30 mins, and then added rIL-17B for 30 mins. […] CCL20 and TFF/mRNA expression of these cells were measured by RT-qPCR (n=3) (FIG. 7D), the same cells were for invasion assay (n=4) (FIG. 7E) and SACF assay (n=4) (FIG. 7F). […] (FIG. 7I) The experimental EKP mice (n=7 for each group) were euthanized at Day 56, and the metastatic tumor nodules in the lungs were counted. […]
# (§2) FIGS. 19A to 19D include charts showing that treatment with the loop peptide suppresses aggressive behavior of patient-derived pancreatic tumor cells. […] (FIG. 19C and FIG. 19D) These cells were measured by RT-qPCR for the cytokine gene mRNA expression (n=3), or for Invasion assay (n=4) (FIG. 19C) and SACF assay (n=4) (FIG. 19D). […]
# [2] = test system: IL-17RB; assay: Immunoblotting/IP of IL-17B-induced IL-17RB signaling in CFPAC1 cells after peptide pretreatment; conditions: CFPAC1 cells pretreated with peptides 30 mins, then rIL-17B 30 mins
# Source text: FIGS. 7A to 7J include charts showing that disruption of the interaction between IL-17RB and MLK4 by the loop peptide blocks oncogenic progression. (FIG. 7A) Peptides TAT48-57 (Control) (SEQ ID NO: 21) and TAT-IL-17RB403-416 (Loop) (SEQ ID NO: 30) used for the following experiments. (FIG. 7B) Immunoblotting analysis of IL-17RB binding to MLK4 with Loop peptide treatment. 293T cells expressing Flag-MLK4 and HA-IL-17RB were pretreated with the control and loop peptides with different dose (0, 0.1, 1, 10, 50, 100 ng/ml) for 30 mins, and then added rIL-17B for 30 mins. The cell lysates were reciprocally co-immunoprecipitated with anti-Flag and anti-HA and blotted with the indicated antibodies or directly immunoblotted with the indicated antibodies as the input controls. (FIG. 7C to FIG. 7F) CFPAC1cells were pretreated with the peptides for 30 mins and then added rIL-17B for 30 mins. The cell lysates were immunoblotted with the indicated antibodies or immunoprecipitated with anti-IL-17RB or control IgG and blotted with the indicated antibodies (FIG. 7C). CFPAC1 cells were pretreated with TAT48-57 or TAT-IL-17RB403-416 (50 ng/ml) 30 mins and then added rIL-17B for two hrs. CCL20 and TFF/mRNA expression of these cells were measured by RT-qPCR (n=3) (FIG. 7D), the same cells were for invasion assay (n=4) (FIG. 7E) and SACF assay (n=4) (FIG. 7F). (FIG. 7G) The scheme of the treatment of transgenic pancreatic cancer EKP mice (LSL-Kras^+/G12D; p53^+/−; Ela-Cre^ERT; plus cerulein) with the Loop peptides. (FIG. 7H) IHC images of pancreases stained with anti-P-Y447 antibody. Scale bars: 50 μm. The pancreas tissues were from EKP mice after treated with the control or loop peptides at Day 42. The Kras^+/+ mice (Kras^+/+; p53^+/−; Ela-Cre^ERT; plus cerulein) were used as the non-cancerous control. Boxes indicate the enlarged areas. (FIG. 7I) The experimental EKP mice (n=7 for each group) were euthanized at Day 56, and the metastatic tumor nodules in the lungs were counted. (FIG. 7J) Kaplan-Meier survival curve plot of the lifespans of the experimental EKP mice (n=7 for each group). […]
# [3] = test system: pancreatic cancer cells expressing IL-17RB; assay: RT-qPCR of cytokine gene expression (CCL20, TFF1) after peptide pretreatment and rIL-17B; conditions: CFPAC1 and PDX-derived cells; peptide 50 ng/ml 30 mins, then rIL-17B 2 hrs
# Source text: as §1, §2
sequence,measurement,setting,value
"RKKRRQRRRVCDGTCGKSEGSPS (IL-17RB inhibitory peptide, fusion protein) [loop peptide]",invasion ability,[1],diminished
same,ERK1/2 phosphorylation induced by IL-17B,[2],abolished
same,tyrosine phosphorylation of IL-17RB induced by IL-17B,[2],abolished
same,ubiquitination of IL-17RB induced by IL-17B,[2],abolished
same,"cytokine gene expression (CCL20, TFF1 mRNA)",[3],diminished
